Data from patent US9701631B2, “TIP60 inhibitors” (The Trustees Of The University Of Pennsylvania, priority 2010, dated 2017).
Values belong to the molecule of their own block, whether it stands above or below them.

Tests used:
TIP60 = target: T1, TIP60 (Homo sapiens, UniProt Q92993); test: TIP60 activity by acetylation of TIP60 or its substrate FOXP3 in transfected 293T cells (Ac-K immunoprecipitation, Western blot); assay type: cell-based; settings: 4 hours
T1 construct: expressed in transfected cells; host or cells: 293T cells
T1 sequence (Q92993 whole entry, species assumed): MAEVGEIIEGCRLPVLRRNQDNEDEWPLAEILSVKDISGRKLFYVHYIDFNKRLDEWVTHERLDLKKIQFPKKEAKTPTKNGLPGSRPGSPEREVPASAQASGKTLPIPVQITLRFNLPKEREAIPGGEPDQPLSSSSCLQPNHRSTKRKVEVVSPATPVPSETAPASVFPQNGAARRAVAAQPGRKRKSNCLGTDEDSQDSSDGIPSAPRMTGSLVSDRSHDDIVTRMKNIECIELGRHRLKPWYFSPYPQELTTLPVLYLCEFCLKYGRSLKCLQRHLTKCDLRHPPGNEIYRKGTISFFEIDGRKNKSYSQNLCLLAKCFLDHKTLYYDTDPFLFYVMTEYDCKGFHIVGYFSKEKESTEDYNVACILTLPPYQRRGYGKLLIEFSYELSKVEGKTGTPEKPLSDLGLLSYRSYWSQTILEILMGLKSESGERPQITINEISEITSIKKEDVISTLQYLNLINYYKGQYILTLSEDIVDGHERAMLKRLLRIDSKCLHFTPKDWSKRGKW
Method: FIG. 11 illustrate the effect of B7G on TIP60. TIP60 activity was assessed by examining acetylation of TIP60 or its substrate FOXP3. Both TIP60 and FOXP3 were overexpressed in 293T cells. Acetylated proteins were first immunoprecipitated with the acetyl-lysine specific antibody Ac-K and then blotted with HRP conjugated antibodies to expression tags (HA for FOXP3 or FLAG for TIP60).
TIP60 is known to have acetyl transferase activity to acetylate itself (auto-acetylation) or substrates including FOXP3. To examine activity of B7G on TIP60, 293T cells were transfected with Flag-tagged TIP60 and HA-tagged FOXP3. 24 hours after transfection, cells were treated with various concentrations of B7G for 4 hours before cell lysates were collected. Acetylated proteins were precipitated by anti-acetyl lysine antibody Ac-K. FOXP3 and TIP60 in the lysate or precipitated by Ac-K antibody were identified by anti-HA-HRP and anti-FLAG-HRP respectively.

[1] = tested on: Treg suppression of T cell proliferation; test: Treg suppression assay in vitro (T cell proliferation, 3 days, CFSE dye, flow cytometry); assay type: cell-based; settings: for enhancement of suppression of Treg in vitro: 500x dilution of 10 mM solution (20 micromolar), FIG. 10; for percentage of proliferated cells: Treg:Teff=1:1
Excerpt: FIGS. 8A-D are flow cytometry dataplots showing the enhancement of TIP60 inhibitor B7 suppression of Treg in vitro. Individual peaks reflect number of cells divisions under the standard test conditions (3 days), where the cell populations are dyed with CFSE (carboxyfluorescen diacetate, succimidyl ester). FIG. 8A are the data for DMSO without B7; FIG. 8B are the data for B7-1000×; FIG. 8C are the data for B7-4000×; and FIG. 8D are the data for B7-8000. In each case, the 1000×/4000×/8000× refers to the dilution factor of the B7, from an original 10 mM solution of B7; e.g, 1000× represents a solution diluted by a factor of 1000, so as to result in a 10 micromolar solution. The numbers in the upper left corner of the plot (e.g., 88, 81, 74, 65, and 37 of FIG. 8A) refer to the measured percentage of proliferated cells.
FIGS. 10A-E are flow cytometry dataplots showing the enhancement of TIP60 inhibitors B7 suppression of Treg in vitro. FIG. 10A are the data for DMSO without any B7-type inhibitor; FIG. 10B are the data for B7-500×; FIG. 10C are the data for B7A-500×; FIG. 10D are the data for B7B-500; and FIG. 10E are the data for B7C-500×. In each case, the 500× refers to the dilution factor of the B7/B7A/B7B/B7C, from an original 10 mM solution of the compound; e.g, 500× represents a solution diluted by a factor of 500, so as to result in a 20 micromolar solution.
Several exemplary compounds of the present invention were screened at 10 μg/ml in vitro, at varying Treg:T cell ratios, using standard cell proliferation techniques (3 days, using CSFE dyes). Such techniques are well understood by those skilled in the art. For example, see Akimova T, Ge G, Golovina T, Mikheeva T, Wang L, Riley J L, Hancock W W., “Histone/protein deacetylase inhibitors increase suppressive functions of human FOXP3+ Tregs,” Clin Immunol. 2010 September; 136(3):348-63; Tao R, Hancock W W., Resistance of FOXP3+ regulatory T cells to Nur77-induced apoptosis promotes allograft survival,” PLoS One. 2008 May 28; 3(5):e2321; Tao R, Wang L, Murphy K M, Fraser C C, Hancock W W., “Regulatory T cell expression of herpesvirus entry mediator suppresses the function of B and T lymphocyte attenuator-positive effector T cells.,” J. Immunol. 2008 May 15; 180(10):6649-55; and Tao R, de Zoeten E F, Ozkaynak E, Chen C, Wang L, Porrett P M, Li B, Turka L A, Olson E N, Greene M I, Wells A D, Hancock W W., “Deacetylase inhibition promotes the generation and function of regulatory T cells,” Nat. Med. 2007 November; 13(11):1299-307 for the protocols used herein. Each of these references is incorporated by reference herein, at least for this purpose.
T cell proliferation was unimpaired in the absence of Treg cells (see left panels in FIG. 8A-D), but was increasingly impaired at increasing Treg concentration (for example, in FIG. 8A, increasing Treg:Tcell ratio from 0:1 to 1:1 reduced proliferation from 88% to 37% under otherwise identical conditions). […] Efficacy was also seen at 1 μg/ml for some compounds.

[2] = tested on: dextran sodium sulfate (DSS) model of colitis; test: DSS model of established colitis in mice, remedial treatment; assay type: in vivo
Method: FIGS. 12A-C are the result of experiments described in Example 5. […] FIG. 12C provide graphical data for weight loss, bleeding score, and stool consistency (i.e., higher score reflects higher levels of diarrhea), wherein the mice were first subjected to DSS irritation, then subset populations were remedially treated after 8 days with the compound having Structure B7.
In a first test, the effects of exposure to dextran sodium sulfate (DSS) were evaluated, which results in a partially CD4-dependent inflammatory model of colitis, in wildtype (WT) versus TIP60dn C57BL/6 mice (8 mice/group).
Data were also generated using the compound of Structure B7 in the DSS model, in an experiment designed to test the ability of TIP60 inhibitor therapy to reverse established colitis by waiting until mice had ˜15% weight loss. In marked contrast to use of carrier DMSO alone, TIP60 inhibitor therapy (2 mg/kg/d, i.p.) reversed weight loss (p<0.01), blood in the stool (p<0.01) and diarrhea (p<0.005) (see FIG. 12C) and maintained colon length (p<0.01).

FOXP3 = FOXP3 bound on chromatin in SZ-4 T cells (Western blot); assay type: cell-based; settings: FIG. 9
[3] = 2 mg/kg/d i.p., vs carrier DMSO, p<0.01

Acetylated FOXP3 (HA-HRP blot of Ac-K precipitated proteins) (TIP60; 32 μg/ml): reduced significantly | Acetylated TIP60 (FLAG-HRP blot of Ac-K precipitated proteins) (TIP60; 32 μg/ml): reduced significantly | TIP60 auto-acetylation (TIP60; lower concentration than 32 μg/ml): slightly increase | FOXP3 expression level in total cell lysate (TIP60; various concentrations): not significantly affected | TIP60 expression level in total cell lysate (TIP60; various concentrations): not significantly affected
SMILES: COc1ccc(CCN2CC(C(=O)Nc3ccc(F)c(Cl)c3)CC2=O)cc1OC (stereo not drawn) [B7G]

SMILES: Cc1ccc(NC(=O)C2CC(=O)N(CCc3ccc(Cl)cc3)C2)cc1 (stereo not drawn) [B7]
enhancement of suppression of Treg in vitro [1]: enhancement | T cell proliferation in the absence of Treg cells ([1]; Treg:Tcell 0:1, left panels FIG. 8A-D): unimpaired | percentage of proliferated cells ([1]; FIG. 8B (B7-1000x dilution of 10 mM, 10 μM), highest B7 dosage): 25% | percentage of proliferated cells ([1]; FIG. 8C (B7-4000x dilution of 10 mM), middle B7 dosage): 30% | percentage of proliferated cells ([1]; FIG. 8D (B7-8000x dilution of 10 mM), lowest B7 dosage): 37% | Treg activity (decreasing Tcell proliferation) ([1]; dose dependent, varying Treg:T cell ratios): enhanced the Treg activity | weight loss ([2]; 2 mg/kg/d i.p., started at ~15% weight loss, vs carrier DMSO, p<0.01): reversed | diarrhea ([2]; 2 mg/kg/d i.p., vs carrier DMSO, p<0.005): reversed | blood in the stool [2, 3]: reversed | colon length [2, 3]: maintained | colon length relative to that of an unstressed control animal ([2]; single animal, 3% DSS then B7): about 94% | spleen size relative to control animal ([2]; single remediated animal, 3% DSS then B7): comparable in size to that of the control

SMILES: Cc1ccc2cc(NC(=O)C3CC(=O)N(CCc4ccc(Cl)cc4)C3)ccc2n1 (stereo not drawn) [B7C]
enhancement of suppression of Treg in vitro [1]: enhancement | FOXP3 bound on chromatin (FOXP3): intervening with FOXP3 bound on chromatin

SMILES: O=C(Nc1ccc(Cl)cc1)C1CC(=O)N(CCc2ccc(Cl)cc2)C1 (stereo not drawn) [B7A]
enhancement of suppression of Treg in vitro [1]: enhancement

SMILES: COc1ccc(NC(=O)C2CC(=O)N(CCc3ccc(Cl)cc3)C2)cc1 (stereo not drawn) [B7B]
enhancement of suppression of Treg in vitro [1]: enhancement
